The source of these data is article PMC4426631, “Insect antimicrobial peptides show potentiating functional interactions against Gram-negative bacteria” (Proceedings of the Royal Society B: Biological Sciences, 2015).

One assay deals with E. coli strain D31. Description: Coarse growth inhibition assay, E. coli strain D31. The format is cell-based. As for the experimental part: (§1) Initial coarse-level growth inhibition assays were carried out with concentrations of peptides up to 200 μM. Further assays of growth rates (bacteriostatic activity) and cell viability (bactericidal activity) were carried out on a finer scale. […] Growth rates were derived from spline-fitted growth curves to optical density (OD) data, while cell viability was assessed by plating cultures and counting colony-forming units after 18 h. Dose–response curves were fitted to both the bacteriostatic and bactericidal data with Markov Chain Monte Carlo parameter optimization (further details in electronic supplementary material). […]
v) Coarse growth inhibition assays.
Bact eria in mid-logarithmic phase were used for all growth inhibition assays. The initial OD600 for all assa ys was set to 0.001 to ensure the full contact of each b acteri al cell with added AMPs.
The assa ys were carried out in 96-well plates (Griener Bio On e, Frick enh ausen, Germ an y) in an Eon™ Microplate Spectrophotometer (BioTek Instruments, VT, USA) for 16 h while r eco rding of changes in the OD600 at 20- min intervals. For each assa y, a control culture was included with medium onl y. The AMPs used inthis assay are sh own in Tables S1and S4. vi) Dose response curv e quantif ication
Growth inhibition assay. E. coli cells (DSM 498) wer e grown in Muller-Hinton broth (Sigma-Aldrich) for 14 h at 30 °C and count ed using a FastRead 102 counting cham ber ( Immune S yst ems, UK). The suspension w as adjusted in fresh mediu m to achieve a cell density of 5 x 104 per 80 µl. […]
(§2) 1.25, 2.5, 5, 10, and 20 μM) in rows, and 10 µl volumes of hymenoptaecin (final concentrations of 0, 0.625, 1.25, 2.5, 5, and 10 μM) in columns. […] Th e OD600 was measured ever y hour for 12 consecutive hours using a SpectraMax M2e microplate reader (Molecular Devices, Sunnyvale, USA). […]
Cell viability. […] Bacteria were grown for 18 h with AMPs before the number of viable cells was assessed. […] Colony-forming units (CFUs), each representing a viable cell from the culture, were counted at a dilution where each individual CFU could be distinguished.

A further assay relates to E. coli 498. Description: Bactericidal cell viability assay (CFU after 18 h), E. coli 498. The format is cell-based. As for the experimental part: as §1
v) Coarse growth inhibition assays. […]
The assa ys were carried out in 96-well plates (Griener Bio On e, Frick enh ausen, Germ an y) in an Eon™ Microplate Spectrophotometer (BioTek Instruments, VT, USA) for 16 h while r eco rding of changes in the OD600 at 20- min intervals. […] The AMPs used inthis assay are sh own in Tables S1and S4. vi) Dose response curv e quantif ication […]
as §2
Cell viability. […] Bacteria were grown for 18 h with AMPs before the number of viable cells was assessed. […]

Cf = 5(6)-carboxyfluorescein

Take “abaecin: proline-rich peptide abaecin, species version not specified at the place (Cf-FVPYNPPRPGQSKPFPSFPGHGPFNPKIQWPYPLPNPGH-NH2)”: the “antibacterial activity, abaecin alone” value with E. coli strain D31 (E. coli D31, 20 µM (figure 1a) to 200 µM (data not shown), OD600, 16 h) is recorded as “unable to detect any antibacterial activity”; with E. coli strain D31 (E. coli, tested alone at concentrations of up to 200 μM), “no detectable activity”. In the assay with E. coli strain D31 (even at a concentration of 200 µM), the “impact on bacterial growth or survival, abaecin alone” value is “no impact on bacterial growth or survival”. In addition, the “impact on cell viability, abaecin alone” value in the assay with E. coli 498 (E. coli 498, concentrations tested up to 20 µM, CFU after 18 h) is reported as “no impact on cell viability”. For the same substance, the “lowest abaecin concentration that enhanced the bactericidal effects of hymenoptaecin” value in the assay with E. coli 498 (E. coli, in combination with hymenoptaecin) was determined as 1.25 µM.
